Data as given in paper PMC8247284 (Antiviral Research, 2021).

Columns and labels:
SARS-CoV-2 [1] = assay type: cell-based
[2] = system: alpha- and beta-coronaviruses; assay: organism not typed; conditions: read-out: EC50 values against the various coronaviruses
HCoV-229E = assay: Confocal microscopy of dsRNA, HCoV-229E-infected Huh7 cells; assay type: cell-based; conditions: dsRNA staining, 6 h
[3] = system: LC3-positive puncta (autophagy); assay: Confocal microscopy of LC3 in Huh7 cells; assay type: cell-based, human; conditions: chloroquine 0.5, 5 and 50 μM, 6 h, infected and uninfected Huh7 cells
SARS-CoV-2 [4] = assay: Confocal microscopy of dsRNA, SARS-CoV-2-infected Huh7 cells; assay type: cell-based; conditions: chloroquine 5 μM, 6 h
[5] = system: LC3 puncta (autophagy pathway); assay: High content analysis of cytoplasmic LC3 puncta in HEp-2 cells; assay type: cell-based, human; conditions: 3 h incubation, relative to untreated control

SMILES | EC50 [2] [µM] | further results
N#C[C@@]1(c2ccc3c(N)ncnn23)O[C@H](CO)[C@@H](O)[C@H]1O [GS-441524] |  | log reduction of the viral copy number (SARS-CoV-2 [1]): 4.3 log
COc1cc(C)c2c(Oc3cccc(C(F)(F)F)c3)c(OC)cc(NC(C)CCCN)c2n1 (stereo not drawn) [Tafenoquine, tafenoquine] | > 13 | 
COc1cc(NC(C)CCCN)c2ncccc2c1 (stereo not drawn) [Primaquine, primaquine] | > 13 | 
C=C[C@H]1C[N@@]2CC[C@H]1C[C@@H]2[C@@H](O)c1ccnc2ccc(OC)cc12 [Quinidine, quinidine] | > 13 | 
C=C[C@H]1C[N@@]2CC[C@H]1C[C@H]2[C@H](O)c1ccnc2ccc(OC)cc12 [Quinine, quinine] | > 13 | 
CCN(CC)CCCC(C)Nc1ccnc2cc(Cl)ccc12 (stereo not drawn) [Chloroquine, chloroquine] | 0.12 to 12 | concentration required to fully inhibit HCoV-229E replication (HCoV-229E): 50 µM; LC3-positive puncta [3]: dose-dependent increase; viral RNA synthesis (dsRNA staining) (SARS-CoV-2 [4]): completely blocked; increase of the intensity of cytoplasmic LC3 puncta [5]: 6 fold
CCN(CCO)CCCC(C)Nc1ccnc2cc(Cl)ccc12 (stereo not drawn) [Hydroxychloroquine, hydroxychloroquine] | 0.12 to 12 | increase of the intensity of cytoplasmic LC3 puncta [5]: 6 fold
